Assay results as given in patent US9573913B2, “Cathepsin cysteine protease inhibitors” (Merck Sharp & Dohme Corp., priority 2013, dated 2017).

Columns and labels:
[1] = target: human cathepsin K (UniProt P43236); assay: Cathepsin K Assay (hrbCat K); type: biochemical; conditions: Z-Leu-Arg-AMC substrate, pH 5.5, 15 min preincubation; read-out: hrbCat K (IP (nM))
Outline: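 Human cathepsin K (0.4 nM) was preincubated 15 min at room temperature with compound in 50 mM MES pH 5.5, 2.5 mM EDTA, 2.5 mM DTT and 10% DMSO. Inhibition was fitted to a dose-response model.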

[2] = target: T1, human cathepsin F (Homo sapiens, UniProt Q9UBX1); assay: Cathepsin F assay (hCat F); type: biochemical; conditions: Z-Phe-Arg-AMC substrate, pH 5.5, 15 min preincubation; read-out: hCat F (IP (nM))
T1 sequence (Q9UBX1 271-484): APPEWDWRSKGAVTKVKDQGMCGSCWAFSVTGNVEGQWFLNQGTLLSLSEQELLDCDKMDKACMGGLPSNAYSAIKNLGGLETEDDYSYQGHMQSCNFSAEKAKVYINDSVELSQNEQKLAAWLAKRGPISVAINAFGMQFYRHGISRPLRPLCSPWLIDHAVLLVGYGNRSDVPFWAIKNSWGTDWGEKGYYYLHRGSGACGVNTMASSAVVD
Outline: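 Enzyme (10 nM) was preincubated 15 min at room temperature with compounds (1/3 DMSO dilution series, 500–0.025 μM) in 50 mM MES pH 5.5, 2.5 mM EDTA, 2.5 mM DTT, 10% DMSO. Z-Phe-Arg-AMC (8 μM) was added and AMC fluorescence (Ex 360/Em 460 nm) followed for 20 min. % inhibition was fitted to dose-response curves.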

Compound | IC50 [1] [nM] | IC50 [2] [nM]
CC(C)(O)c1nc([C@@H]2CCCC[C@H]2C(=O)NC2(C#N)CC2)c(-c2ccc(N3CCS(=O)(=O)CC3)cc2)s1 [Example 208, (1R,2R)-N-(1-cyanocyclopropyl)-2-(5-(4-(1,1-dioxidothiomorpho-lino)phenyl)-2-(2-hydroxypropan-2-yl)thiazol-4-yl)cyclohexane-carboxamide] | 7.9 | ≥ 10000
CC(C)[C@@H](C#N)NC(=O)[C@@H]1C[C@@H](F)CC[C@H]1c1nc(-c2cncc(F)c2)sc1-c1ccc(N2CCS(=O)(=O)CC2)cc1 [Example 209, (1R,2R,5S)-N-((S)-1-cyano-2-methylpropyl)-2-(5-(4-(1,1-dioxidothiomorpho-lino)phenyl)-2-(5-fluoropyridin-3-yl)thiazol-4-yl)-5-fluorocyclohexane-carboxamide] | 1.5 | 1000
N#CC1(NC(=O)[C@@H]2CCCC[C@H]2c2nc(-c3ccc(F)cn3)sc2-c2ccc(N3CCS(=O)(=O)CC3)cc2)COC1 [Example 211, (1R,2R)-N-(3-cyanooxetan-3-yl)-2-(5-(4-(1,1-dioxidothiomorpho-lino)phenyl)-2-(5-fluoropyridin-2-yl)thiazol-4-yl)cyclohexane-carboxamide] | 1.7 | 289
CC(C)[C@@H](C#N)NC(=O)[C@@H]1C[C@@H](F)CC[C@H]1c1nc(C2CC(F)(F)C2)sc1-c1ccc(N2CCS(=O)(=O)CC2)cc1 [Example 213] | 7.8 | ≥ 10000
Cc1ccc(-c2nc([C@@H]3CC[C@H](F)C[C@H]3C(=O)NC3(C#N)CC3)c(-c3ccc(N4CCC(S(C)(=O)=O)CC4)cc3)s2)nn1 [Example 223, (1R,2R,5S)-N-(1-cyanocyclopropyl)-5-fluoro-2-(2-(6-methylpyridazin-3-yl)-5-(4-(4-(methylsulfonyl)piperidin-1-yl)phenyl)thiazol-4-yl)cyclohexane-carboxamide] | 2.9 | 2230
CC(C)(CO)c1nc([C@@H]2CCCC[C@H]2C(=O)NC2(C#N)CC2)c(-c2ccc(N3CCS(=O)(=O)CC3)cc2)s1 [Example 224, (1R,2R)-N-(1-cyanocyclopropyl)-2-(5-(4-(1,1-dioxidothiomorpho-lino)phenyl)-2-(1-hydroxy-2-methylpropan-2-yl)thiazol-4-yl)cyclohexane-carboxamide] | 3.3 | ≥ 10000
C[C@@H](C#N)NC(=O)[C@@H]1C[C@@H](F)CC[C@H]1c1nc(C2(C(F)(F)F)CC2)sc1-c1ccc(N2CCS(=O)(=O)CC2)cc1 [Example 231, (1R,2R,5S)-N-((S)-1-cyanoethyl)-2-(5-(4-(1,1-dioxidothiomorpho-lino)phenyl)-2-(1-(trifluoromethyl)cyclopropyl)thiazol-4-yl)-5-fluorocyclohexane-carboxamide] | 2.8 | 3140
Cc1nc([C@@H]2CC[C@H](F)C[C@H]2C(=O)N[C@@H](C)C#N)c(-c2ccc(N3CCC(F)(F)CC3)cc2)s1 [Example 239, (1R,2R,5S)-N-((S)-1-cyanoethyl)-2-(5-(4-(4,4-difluoropiperidin-1-yl)phenyl)-2-methylthiazol-4-yl)-5-fluorocyclohexane-carboxamide] | 8.5 | 5340
Cc1nc([C@@H]2CC[C@H](F)C[C@H]2C(=O)N[C@@H](C)C#N)c(-c2ccc(N3CCC(C)(O)CC3)cc2)s1 [Example 241, (1R,2R,5S)-N-((S)-1-cyanoethyl)-5-fluoro-2-(5-(4-(4-hydroxy-4-methylpiperidin-1-yl)phenyl)-2-methylthiazol-4-yl)cyclohexane-carboxamide] | 34.9 | ≥ 10000
Cc1nc([C@@H]2CC[C@H](F)C[C@H]2C(=O)NC2(C#N)CC2)c(-c2ccc(N3CCC(C)(O)CC3)cc2)s1 [Example 242, (1R,2R,5S)-N-(1-cyanocyclopropyl)-5-fluoro-2-(5-(4-(4-hydroxy-4-methylpiperidin-1-yl)phenyl)-2-methylthiazol-4-yl)cyclohexane-carboxamide] | 26.3 | ≥ 10000

Continued, values first:

IC50 [1] [nM] | IC50 [2] [nM] | Compound
1.6 | 2570 | C[C@@H](C#N)NC(=O)[C@@H]1C[C@@H](F)CC[C@H]1c1nc(C(C)(C)C)sc1-c1ccc(N2CCS(=O)(=O)CC2)cc1 [Example 207, (1R,2R,5S)-2-(2-(tert-butyl)-5-(4-(1,1-dioxidothiomorpho-lino)phenyl)thiazol-4-yl)-N-((S)-1-cyanoethyl)-5-fluorocyclohexane-carboxamide]
11.4 | 9900 | Cc1nc([C@@H]2CC[C@H](F)C[C@H]2C(=O)N[C@H](C#N)C(C)C)c(-c2ccc(N3CCS(=O)(=O)CC3)cc2)s1 [Example 210, (1R,2R,5S)-N-((S)-1-cyano-2-methylpropyl)-2-(5-(4-(1,1-dioxidothiomorpho-lino)phenyl)-2-methylthiazol-4-yl)-5-fluorocyclohexane-carboxamide]
4.2 | 6700 | C[C@@H](C#N)NC(=O)[C@@H]1C[C@@H](F)CC[C@H]1c1nc(C2CC(F)(F)C2)sc1-c1ccc(N2CCS(=O)(=O)CC2)cc1 [Example 212, (1R,2R,5S)-N-((S)-1-cyanoethyl)-2-(2-(3,3-difluorocyclobutyl)-5-(4-(1,1-dioxidothiomorpho-lino)phenyl)thiazol-4-yl)-5-fluorocyclohexane-carboxamide]
7.1 | 2480 | Cc1ccc(-c2nc([C@@H]3CC[C@H](F)C[C@H]3C(=O)NC3(C#N)CC3)c(-c3ccc(N4CCOCC4)cc3)s2)nn1 [Example 216, (1R,2R,5S)-N-(1-cyanocyclopropyl)-5-fluoro-2-(2-(6-methylpyridazin-3-yl)-5-(4-morpholinophenyl)thiazol-4-yl)cyclohexane-carboxamide]
1.5 | 2930 | Cc1ccc(-c2nc([C@@H]3CC[C@H](F)C[C@H]3C(=O)N[C@H](C#N)C(C)C)c(-c3ccc(N4CCS(=O)(=O)CC4)cc3)s2)nn1 [Example 217, (1R,2R,5S)-N-((S)-1-cyano-2-methylpropyl)-2-(5-(4-(1,1-dioxidothiomorpho-lino)phenyl)-2-(6-methylpyridazin-3-yl)thiazol-4-yl)-5-fluorocyclohexane-carboxamide]
1.6 | 2090 | C[C@@H](C#N)NC(=O)[C@@H]1C[C@@H](F)CC[C@H]1c1nc(C(F)F)sc1-c1ccc(N2CCS(=O)(=O)CC2)cc1 [Example 220, (1R,2R,5S)-N-((S)-1-cyanoethyl)-2-(2-(difluoromethyl)-5-(4-(1,1-dioxidothiomorpho-lino)phenyl)thiazol-4-yl)-5-fluorocyclohexane-carboxamide]
6.2 | 2050 | Cc1ccc(-c2nc([C@@H]3CC[C@H](F)C[C@H]3C(=O)NC3(C#N)CC3)c(-c3ccc(N4CCC(C)(O)CC4)cc3)s2)nn1 [Example 222, (1R,2R,5S)-N-(1-cyanocyclopropyl)-5-fluoro-2-(5-(4-(4-hydroxy-4-methylpiperidin-1-yl)phenyl)-2-(6-methylpyridazin-3-yl)thiazol-4-yl)cyclohexane-carboxamide]
1.6 | 1040 | C[C@@H](C#N)NC(=O)[C@@H]1CCCC[C@H]1c1nc(C(C)(C)CO)sc1-c1ccc(N2CCS(=O)(=O)CC2)cc1 [Example 225, (1R,2R)-N-((S)-1-cyanoethyl)-2-(5-(4-(1,1-dioxidothiomorpho-lino)phenyl)-2-(1-hydroxy-2-methylpropan-2-yl)thiazol-4-yl)cyclohexane-carboxamide]
45.5 | 3330 | Cc1nc([C@@H]2CC[C@H](F)C[C@H]2C(=O)N[C@@H](C)C#N)c(-c2ccc(N3CCOCC3)cc2)s1 [Example 230, (1R,2R,5S)-N-((S)-1-cyanoethyl)-5-fluoro-2-(2-methyl-5-(4-morpholinophenyl)thiazol-4-yl)cyclohexane-carboxamide]
5 | ≥ 10000 | N#CC1(NC(=O)[C@@H]2C[C@@H](F)CC[C@H]2c2nc(C3(C(F)(F)F)CC3)sc2-c2ccc(N3CCS(=O)(=O)CC3)cc2)CC1 [Example 232, (1R,2R,5S)-N-(1-cyanocyclopropyl)-2-(5-(4-(1,1-dioxidothiomorpho-lino)phenyl)-2-(1-(trifluoromethyl)cyclopropyl)thiazol-4-yl)-5-fluorocyclohexane-carboxamide]
4.1 | 6830 | C[C@@H](C#N)NC(=O)[C@@H]1C[C@@H](F)CC[C@H]1c1nc(CF)sc1-c1ccc(N2CCS(=O)(=O)CC2)cc1 [Example 237, (1R,2R,5S)-N-((S)-1-cyanoethyl)-2-(5-(4-(1,1-dioxidothiomorpho-lino)phenyl)-2-(fluoromethyl)thia-zol-4-yl)-5-fluorocyclohexane-carboxamide]
3.5 | 3170 | N#CC1(NC(=O)[C@@H]2C[C@@H](F)CC[C@H]2c2nc(CF)sc2-c2ccc(N3CCS(=O)(=O)CC3)cc2)CC1 [Example 238, (1R,2R,5S)-N-(1-cyanocyclopropyl)-2-(5-(4-(1,1-dioxidothiomorpho-lino)phenyl)-2-(fluoromethyl)thia-zol-4-yl)-5-fluorocyclohexane-carboxamide]
8 | 7120 | Cc1nc([C@@H]2CC[C@H](F)C[C@H]2C(=O)NC2(C#N)CC2)c(-c2ccc(N3CCC(F)(F)CC3)cc2)s1 [Example 240, (1R,2R,5S)-N-(1-cyanocyclopropyl)-2-(5-(4-(4,4-difluoropiperidin-1-yl)phenyl)-2-methylthiazol-4-yl)-5-fluorocyclohexane-carboxamide]
